From ChEMBL document CHEMBL1201862, “PubChem BioAssay data set” (2004)
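Growth conditions: 96-well plates. Treatment: test compound, 48 hours, 5 concentrations. Analysis: linear interpolation between bracketing concentrations; unreached endpoints set to highest concentration. Here, GI50 denotes the concentration required for 50% inhibition of growth.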 The source made the active and inactive calls. Rule as the data show it: active = GI50 up to about 1.1 µM and inactive = higher.

Tests used:
Assay in all cases: growth of human tumour cells (NCI), 48 h
Malme-3M = system: Malme-3M
OVCAR-8 = system: OVCAR-8
MDA-MB-231 = system: MDA-MB-231
LOX IMVI = system: LOX IMVI
DU-145 = system: DU-145
SK-MEL-5 = system: SK-MEL-5
CAKI-1 = system: CAKI-1
HCC 2998 = system: HCC 2998
HCT-15 = system: HCT-15
MDA-MB-435 = system: MDA-MB-435
RPMI-8226 = system: RPMI-8226
SN12C = system: SN12C
KM12 = system: KM12
M14 = system: M14
NCI-H226 = system: NCI-H226
SNB-19 = system: SNB-19
A549 = system: A549
OVCAR-4 = system: OVCAR-4
SF-295 = system: SF-295
UO-31 = system: UO-31

| SMILES | GI50 (Malme-3M) | GI50 (OVCAR-8) | GI50 (MDA-MB-231) | GI50 (LOX IMVI) | GI50 (DU-145) | GI50 (SK-MEL-5) | GI50 (CAKI-1) | GI50 (HCC 2998) | GI50 (HCT-15) | GI50 (MDA-MB-435) | GI50 (RPMI-8226) | GI50 (SN12C) | GI50 (KM12) | GI50 (M14) | GI50 (NCI-H226) | GI50 (SNB-19) | GI50 (A549) | GI50 (OVCAR-4) | GI50 (SF-295) | GI50 (UO-31) |
| --- | --- | --- | --- | --- | --- | --- | --- | --- | --- | --- | --- | --- | --- | --- | --- | --- | --- | --- | --- | --- |
| O=c1c2cc3c(cc2[nH]c2ncccc12)OCO3 | > 10 µM (inactive) | > 10 µM (inactive) | > 10 µM (inactive) | > 10 µM (inactive) | > 10 µM (inactive) | > 10 µM (inactive) | > 10 µM (inactive) | > 10 µM (inactive) | > 10 µM | > 10 µM (inactive) | > 10 µM (inactive) | > 10 µM (inactive) | > 10 µM (inactive) | > 10 µM (inactive) | > 10 µM (inactive) | > 10 µM (inactive) | > 10 µM (inactive) | > 10 µM (inactive) | > 10 µM (inactive) | – |
| COc1c2c(cc3oc(=O)ccc13)OC(C)(C)C=C2 [XANTHOXYLETIN] | 30.1 µM (inactive) | 24.2 µM (inactive) | 19.5 µM (inactive) | 21.8 µM (inactive) | 20.4 µM (inactive) | 21.8 µM (inactive) | 2.26 µM (inactive) | 18.7 µM (inactive) | 23.6 µM | 27.2 µM (inactive) | 24.5 µM (inactive) | 29 µM (inactive) | 19.2 µM (inactive) | 25.1 µM (inactive) | 41.1 µM (inactive) | 35.6 µM (inactive) | 31.7 µM (inactive) | – | 34.1 µM (inactive) | 25.8 µM (inactive) |
| C=C1C(=O)OC2CC3(CO3)C3C(O)C(O)CC3(C)CC12 (configuration not stated) | 18.2 µM (inactive) | 22.3 µM (inactive) | 28.6 µM (inactive) | 8.24 µM (inactive) | 34.4 µM (inactive) | 19 µM (inactive) | 20.3 µM (inactive) | 17.3 µM (inactive) | 17 µM | 25.4 µM (inactive) | 30.9 µM (inactive) | 24.4 µM (inactive) | 32.9 µM (inactive) | 16.4 µM (inactive) | > 100 µM (inactive) | > 100 µM (inactive) | 40.9 µM (inactive) | 76.6 µM (inactive) | > 100 µM (inactive) | – |
| Cc1nn(C(=O)c2ccc(Cl)cc2)c2c1C(c1ccccc1[N+](=O)[O-])SC(=N)N2 (configuration not stated) | > 10 µM (inactive) | > 10 µM (inactive) | > 10 µM (inactive) | > 10 µM (inactive) | > 10 µM (inactive) | > 10 µM (inactive) | > 10 µM (inactive) | > 10 µM (inactive) | > 10 µM | > 10 µM (inactive) | > 10 µM (inactive) | > 10 µM (inactive) | > 10 µM (inactive) | > 10 µM (inactive) | > 10 µM (inactive) | > 10 µM (inactive) | > 10 µM (inactive) | > 10 µM (inactive) | > 10 µM (inactive) | – |
| CN(C)Cc1cc(/N=N/c2ccc(Cl)cc2)cc(CN(C)C)c1O | 14.7 µM (inactive) | 3.75 µM (inactive) | 7.71 µM (inactive) | 3.1 µM (inactive) | 16.9 µM (inactive) | 8.79 µM (inactive) | 12.1 µM (inactive) | 10.5 µM (inactive) | 6.52 µM | 12.2 µM (inactive) | 12.8 µM (inactive) | 11.4 µM (inactive) | 6.55 µM (inactive) | 14.5 µM (inactive) | 4.39 µM (inactive) | 10.6 µM (inactive) | 8.93 µM (inactive) | – | 11.8 µM (inactive) | 1.52 µM (inactive) |
| COc1c(O)cc2oc(-c3ccc(O)cc3)cc(=O)c2c1O [HISPIDULIN] | 74.8 µM (inactive) | – | 74.5 µM (inactive) | 39.2 µM (inactive) | 30.5 µM (inactive) | 15.5 µM (inactive) | – | 28.7 µM (inactive) | 38.7 µM | 36.3 µM (inactive) | 46.3 µM (inactive) | 39.4 µM (inactive) | 31.5 µM (inactive) | 38.6 µM (inactive) | 77.6 µM (inactive) | 56.1 µM (inactive) | 35.5 µM (inactive) | 35.8 µM (inactive) | 44.1 µM (inactive) | 25.1 µM (inactive) |
| CCOC(=O)/C=C1\C[C@H](NC(=O)OCc2ccccc2)C(=O)N1CC(=O)OCC | > 100 µM (inactive) | > 100 µM (inactive) | > 100 µM (inactive) | – | > 100 µM (inactive) | > 100 µM (inactive) | > 100 µM (inactive) | > 100 µM (inactive) | > 100 µM | > 100 µM (inactive) | > 100 µM (inactive) | > 100 µM (inactive) | > 100 µM (inactive) | > 100 µM (inactive) | > 100 µM (inactive) | > 100 µM (inactive) | > 100 µM (inactive) | > 100 µM (inactive) | > 100 µM (inactive) | > 100 µM (inactive) |
| O=c1nc2ccc3sc4ccccc4c(=O)c3n2c(=O)[nH]1 | > 100 µM (inactive) | > 100 µM (inactive) | > 100 µM (inactive) | > 100 µM (inactive) | > 100 µM (inactive) | > 100 µM (inactive) | > 100 µM (inactive) | > 100 µM (inactive) | > 100 µM | > 100 µM (inactive) | > 100 µM (inactive) | > 100 µM (inactive) | > 100 µM (inactive) | – | > 100 µM (inactive) | > 100 µM (inactive) | > 100 µM (inactive) | > 100 µM (inactive) | > 100 µM (inactive) | > 100 µM (inactive) |
| CC(=O)OC12c3ccccc3-c3ccccc3C1C1C(=O)N(C)C(=O)C12Cl (configuration not stated) | > 10 µM (inactive) | > 10 µM (inactive) | > 10 µM (inactive) | > 10 µM (inactive) | > 10 µM (inactive) | > 10 µM (inactive) | > 10 µM (inactive) | > 10 µM (inactive) | > 10 µM | > 10 µM (inactive) | > 10 µM (inactive) | > 10 µM (inactive) | > 10 µM (inactive) | > 10 µM (inactive) | > 10 µM (inactive) | > 10 µM (inactive) | – | > 10 µM (inactive) | > 10 µM (inactive) | > 10 µM (inactive) |
| O=C(/C=C/c1ccc(Cl)c(Cl)c1)CCN1CCN(CCC(=O)/C=C/c2ccc(Cl)c(Cl)c2)CC1 | – | 33.7 µM (inactive) | 25 µM (inactive) | 13 µM (inactive) | 23.8 µM (inactive) | 19.3 µM (inactive) | 15.6 µM (inactive) | 14.1 µM (inactive) | 13.8 µM | 21.8 µM (inactive) | 3.21 µM (inactive) | 26.3 µM (inactive) | 12.5 µM (inactive) | 17.8 µM (inactive) | 19.7 µM (inactive) | – | 30.2 µM (inactive) | 15.7 µM (inactive) | 19.7 µM (inactive) | 16.8 µM (inactive) |
| O=c1ccn(C2OC(CN(O)CCC3C(CO)OC(n4ccc(=O)[nH]c4=O)C3O)C(O)C2O)c(=O)[nH]1 (configuration not stated) | > 100 µM (inactive) | > 100 µM (inactive) | > 100 µM (inactive) | – | > 100 µM (inactive) | > 100 µM (inactive) | > 100 µM (inactive) | > 100 µM (inactive) | > 100 µM | > 100 µM (inactive) | > 100 µM (inactive) | > 100 µM (inactive) | > 100 µM (inactive) | > 100 µM (inactive) | > 100 µM (inactive) | > 100 µM (inactive) | > 100 µM (inactive) | > 100 µM (inactive) | > 100 µM (inactive) | > 100 µM (inactive) |
| CCCCCCOc1ccc(C(=O)NOC)cc1 | – | > 100 µM (inactive) | 80.5 µM (inactive) | > 100 µM (inactive) | > 100 µM (inactive) | > 100 µM (inactive) | 96.8 µM (inactive) | > 100 µM (inactive) | > 100 µM | > 100 µM (inactive) | 36 µM (inactive) | > 100 µM (inactive) | > 100 µM (inactive) | > 100 µM (inactive) | > 100 µM (inactive) | > 100 µM (inactive) | 66.7 µM (inactive) | > 100 µM (inactive) | > 100 µM (inactive) | 30.3 µM (inactive) |
| CNc1ncccc1Nc1cc(=O)n2c3cccnc3n(C)c2c1 | – | > 100 µM (inactive) | 13.7 µM (inactive) | > 100 µM (inactive) | > 100 µM (inactive) | > 100 µM (inactive) | 94.6 µM (inactive) | > 100 µM (inactive) | > 100 µM | > 100 µM (inactive) | > 100 µM (inactive) | – | > 100 µM (inactive) | > 100 µM (inactive) | > 100 µM (inactive) | 40.9 µM (inactive) | > 100 µM (inactive) | 38.9 µM (inactive) | 93.5 µM (inactive) | > 100 µM (inactive) |
| O=c1cc(-c2cccnc2)[nH]c2cc3c(cc12)OCO3 | 3.15 µM (inactive) | 12.9 µM (inactive) | 29.6 µM (inactive) | 4.67 µM (inactive) | 33 µM (inactive) | 2.73 µM (inactive) | – | 7.4 µM (inactive) | 3.9 µM | 1.84 µM (inactive) | 34 µM (inactive) | 12.2 µM (inactive) | 3.77 µM (inactive) | 4.59 µM (inactive) | 18.8 µM (inactive) | 13 µM (inactive) | 19.2 µM (inactive) | > 73.3 µM (inactive) | 11.1 µM (inactive) | 44.4 µM (inactive) |
| COc1ccc(C2=NNC(=O)c3ccccc3N2c2nc(-c3cccs3)nc3cc(OC)c(OC)cc23)cc1 | 2.6 µM (inactive) | 5.05 µM (inactive) | 2.81 µM (inactive) | – | 6.49 µM (inactive) | 3.72 µM (inactive) | 14.6 µM (inactive) | 2.96 µM (inactive) | 5.92 µM | 3.75 µM (inactive) | 3.71 µM (inactive) | 3.17 µM (inactive) | 4.09 µM (inactive) | 4.29 µM (inactive) | 4.56 µM (inactive) | 2.79 µM (inactive) | 5.6 µM (inactive) | 1.8 µM (inactive) | 3.95 µM (inactive) | 4.34 µM (inactive) |
